Test results as given in US20210073352A9, “SYSTEM AND METHOD FOR DRUG TARGET AND BIOMARKER DISCOVERY AND DIAGNOSIS USING A MULTIDIMENSIONAL MULTISCALE MODULE MAP” (Data4Cure, Inc., priority 2015, published 2021).
“Also recorded” adds a separate entry of the source.

System: 504 cancer cell lines
Experiment: Drug sensitivity (IC50 index) of cancer cell lines with versus without a mutation in a module, compared by T-test
Format: cell-based
Details: for T-Statistic, sensitivity to drug vs mutation in module: T-test of IC50 scores, cell lines with vs without mutation
From the text: An inference engine can be used to identify an association between drug sensitivity of a sample and module activity or mutation status. For example, by using a statistical test to compare the IC 50 indexes or other measures of drug sensitivity known to those skilled in the art, for two or more classes of samples determined by the presence or absence of a mutation within a module of interest or determined by a module feature (e.g. high or low activity). A statistical test, such as, for example, a T-test or Wilcoxon test or another test known to those skilled in the art can be used to compare the IC50 scores across two sets of samples. By way of example and not of limitation, an ANOVA analysis can be used to compare such scores over two or more classes of samples.
Change in drug sensitivity conditional on sample class determined by module activity or mutation status can be computed, for example, by using a statistical test by comparing, for example, the IC 50 indexes or other measures of drug sensitivity known to those skilled in the art, for two or more classes of samples. A statistical test, such as, for example, a T-test or Wilcoxon test or another test known to those skilled in the art can be used to compare the IC50 scores across two sets of samples. By way of example and not of limitation, an ANOVA analysis can be used to compare such scores over two or more classes of samples.
The Broad GDAC Firehose provides publicly-available preprocessed TCGA level 3 data and level 4 analyses packaged in a form amenable to immediate algorithmic intake (Marx, V. et al. Nat. Methods 10, 293-297 (2013); incorporated by reference in its entirety). From this resource gene mutations were obtained, copy-number variants and mRNA expression levels (microarray and RNAseq) for human subjects as well as selected clinical data such as overall patient survival and the list of administered oncology drugs for each patient were also obtained. Molecular data (including somatic mutations) as well as drug sensitivity data for 504 cancer cell lines were obtained, deposited and made publicly available by the Sage Bionetworks Synapse platform (Friend, S. et al. Cancer Discov. 2, 658 (2012); hereby incorporated by reference in its entirety).
A multidimensional multiscale map was generated where module colors indicate the change in drug sensitivity depending on the mutation status of a given module (i.e. module can contain a mutation in one of the genes or not) [FIG. 11]. The change is computed by comparing drug sensitivity for samples with or without mutations within genes belonging to a module. Drug sensitivity was measured by the IC 50 index (Soothill, J. S. et al. J. Antimicrob. Chemother. 29, 137-139 (1992); hereby incorporated by reference in its entirety). A T-test was used to compare the IC50 scores across two sets of samples. […] Cell lines with a relevant mutation are indicated as “1” in the boxplot and tend to have lower IC 50 values indicating higher sensitivity to AZD6244.

[1] = mutations in genes of module 16157
[2] = mutations in genes of module 16873
[3] = mutations in genes of module 17552
[4] = mutations in genes of module 17611

SMILES | change in drug sensitivity with module mutation (module number 17454 as printed, FIG. 11) | T-Statistic, sensitivity to drug vs mutation in module (mutation in module 16157) | T-Statistic, sensitivity to drug vs mutation in module (mutation in module 16873) | T-Statistic, sensitivity to drug vs mutation in module (mutation in module 17552) | T-Statistic, sensitivity to drug vs mutation in module (mutation in module 17611) | change in drug sensitivity with module mutation [1] | change in drug sensitivity with module mutation [2] | change in drug sensitivity with module mutation [3] | change in drug sensitivity with module mutation [4]
Cn1cnc2c(F)c(Nc3ccc(Br)cc3Cl)c(C(=O)NOCCO)cc21 [AZD6244] | increased sensitivity | −6.876 | −9.937 | −8.56 | −7.071 | more sensitive | more sensitive | increased sensitivity; also recorded: more sensitive | more sensitive
O=C(NOC[C@H](O)CO)c1ccc(F)c(F)c1Nc1ccc(I)cc1F [PD.0325901] | – | −6.692 | −10.52 | −8.774 | −7.111 | more sensitive | more sensitive | more sensitive | more sensitive
